Where two headings read alike, the source gives them in different places.

Assay [1] relates to DUX4. As to the kind of experiment: high-content immunocytochemistry assay of endogenous DUX4 expression in differentiating primary FSHD myotubes. The class given is cell-based, human. The following applies: for EC50: Homo sapiens, Myotube. The source says:
(§1) A quantitative assay readout was developed based on script-based image analysis. […] To analyse the images, an automated script was developed, enabling the detection of nuclei, myotube borders and DUX4 signals, with the script also detecting artefacts to reduce false positive signals. The script enabled multiple validated readouts including the number of DUX4 positive nuclei and nuclei clusters, the fusion index, myotube area, myotube width and myotube skeleton length (see FIG. 2). Additionally, the total nuclei count was included as a measure of cell loss or compound toxicity.
A compound library containing approximately 5000 annotated compounds was screened in the high-content assay. For this purpose, primary myoblasts were seeded in 384 well plates after which the growth medium was replaced with differentiation medium. After 3 days of differentiation, cells were treated with library compounds (in duplicate on different screening plates) for 15 h, after which they were fixed and stained with antibodies against DUX4, antibodies against myosin heavy chain (MHC), and with DAPI (4′,6-diamidino-2-phenylindole). Script-based analysis provided readouts for DUX4 expression (count of DUX4-positive nuclei or DUX4 intensity) and for potential toxicity (fusion index and nuclei count).
Compounds were incubated with primary FSHD cells for 15 hours, as indicated by the arrow in FIG. 4A.
(§2) Compounds are administered either 15 h before fixation, resembling the original screening protocol, or 72 h before fixation (grey arrow). In the latter case, compounds are present during the whole differentiation process.

Assay [2] has as its system DUX4. The note with it: immortalised differentiated myotube cultures; cited from earlier work.
For the next assay, the target named is CK1α (Homo sapiens, UniProt P48729). As to the kind of experiment: CK1α inhibition IC50. The class given is biochemical.
Sequence of CK1α (P48729 whole entry, the tested form may be a part): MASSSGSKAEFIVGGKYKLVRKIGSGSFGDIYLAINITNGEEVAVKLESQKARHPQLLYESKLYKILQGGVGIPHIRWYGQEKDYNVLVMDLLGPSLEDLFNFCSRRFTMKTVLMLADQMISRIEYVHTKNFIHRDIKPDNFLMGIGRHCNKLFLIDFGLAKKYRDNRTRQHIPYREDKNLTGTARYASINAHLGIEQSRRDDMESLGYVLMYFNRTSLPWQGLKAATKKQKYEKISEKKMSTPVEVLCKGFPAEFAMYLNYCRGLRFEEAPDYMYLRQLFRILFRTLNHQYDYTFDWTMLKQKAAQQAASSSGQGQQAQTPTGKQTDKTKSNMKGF
The next assay has as its system primary FSHD cells. As to the kind of experiment: fusion index (myotube fusion) readout of the high-content assay in primary FSHD cells. The class given is cell-based, human. The following applies: for effect on fusion index / myotube fusion: 72 h treatment, compound present during whole differentiation; for myotube formation in the presence of increasing concentrations of losmapimod: 72 h, CK1 inhibitor combined with losmapimod, microscopic images.
From the text: as §1, §2

The target of the next assay is p38α (Homo sapiens, UniProt Q16539). As to the kind of experiment: p38α inhibition IC50. The class given is biochemical.
Sequence of p38α (Q16539 whole entry): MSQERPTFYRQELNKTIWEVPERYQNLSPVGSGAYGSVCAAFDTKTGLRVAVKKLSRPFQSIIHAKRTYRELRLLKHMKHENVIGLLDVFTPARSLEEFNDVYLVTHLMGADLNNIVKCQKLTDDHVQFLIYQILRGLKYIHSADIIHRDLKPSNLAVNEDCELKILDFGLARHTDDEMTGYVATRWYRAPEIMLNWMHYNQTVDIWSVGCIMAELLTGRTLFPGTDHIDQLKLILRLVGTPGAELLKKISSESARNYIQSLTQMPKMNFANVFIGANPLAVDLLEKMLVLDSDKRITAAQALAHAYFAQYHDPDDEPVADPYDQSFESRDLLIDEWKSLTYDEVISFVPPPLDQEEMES
A further assay addresses CK1ε (Homo sapiens, UniProt P49674). As to the kind of experiment: CK1ε inhibition IC50. The class given is biochemical.
In the next assay the target is CK1δ (Homo sapiens, UniProt P48730). As to the kind of experiment: CK1δ inhibition IC50. The class given is biochemical.
Sequence of CK1δ (P48730 whole entry): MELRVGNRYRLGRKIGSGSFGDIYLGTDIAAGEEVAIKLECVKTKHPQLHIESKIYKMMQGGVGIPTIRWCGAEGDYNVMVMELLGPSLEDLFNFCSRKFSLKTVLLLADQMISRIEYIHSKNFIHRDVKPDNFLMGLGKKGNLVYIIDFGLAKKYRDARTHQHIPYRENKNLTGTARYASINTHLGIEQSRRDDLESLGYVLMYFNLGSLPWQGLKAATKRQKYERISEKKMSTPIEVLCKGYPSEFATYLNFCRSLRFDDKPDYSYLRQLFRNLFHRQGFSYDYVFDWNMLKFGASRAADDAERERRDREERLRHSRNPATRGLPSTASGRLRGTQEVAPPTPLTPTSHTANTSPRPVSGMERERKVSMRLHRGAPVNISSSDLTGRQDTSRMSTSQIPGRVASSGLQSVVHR
The subject of another assay is pancreatic tumor cell. The note with it: in vitro and in vivo; cited from earlier work.
[3] abbreviates: Table 7, p38 compounds, read-out: IC50 CK1a.
Where [4] appears, read: Table 7, p38 compounds, read-out: IC50 p38.
The mark [5] stands for this setting: 72 h, Table 4, 72 h treatment protocol, read-out: DUX4 EC50.
The mark [6] stands for this setting: 72 h, Table 6, 72 h treatment protocol, read-out: DUX4 EC50.

Sequence of CK1ε (P49674 whole entry): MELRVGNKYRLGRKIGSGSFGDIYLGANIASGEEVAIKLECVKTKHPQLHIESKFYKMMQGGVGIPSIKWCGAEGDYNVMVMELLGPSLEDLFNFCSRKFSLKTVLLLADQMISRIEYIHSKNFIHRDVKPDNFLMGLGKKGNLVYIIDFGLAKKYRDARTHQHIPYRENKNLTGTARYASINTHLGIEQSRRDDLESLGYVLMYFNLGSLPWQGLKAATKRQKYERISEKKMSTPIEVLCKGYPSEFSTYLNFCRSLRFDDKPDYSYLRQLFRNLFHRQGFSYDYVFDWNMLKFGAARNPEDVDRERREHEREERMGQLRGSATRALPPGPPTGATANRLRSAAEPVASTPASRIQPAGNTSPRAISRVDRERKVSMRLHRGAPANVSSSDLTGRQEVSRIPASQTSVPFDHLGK

Turning to `COc1cc(OC)c2c(=O)[nH]c(-c3cc(C)c(OCCO)c(C)c3)nc2c1` [RVX-208, reference compound], the “effect on DUX4 expression” value in the assay on DUX4 [1] (irrespective of treatment time (15 h or 72 h)) was “did not show any effect on DUX4 expression”. In addition, the “expression of DUX4” value in the assay on DUX4 [2] was “can inhibit the expression of DUX4”.
For the molecule `Cc1cc(F)ccc1-c1nc(NC(CO)CO)nc2c1ccc(=O)n2-c1c(F)cccc1F` [SB-681323, reference compound], the IC50 at CK1α (setting [3]) was over 10 µM; on p38α (setting [4]), 0.011 µM. In the assay with primary FSHD cells, the “effect on fusion index / myotube fusion” value is given as “inhibited the fusion index”.
For `CC1(C)CN(c2ccc3nc(-c4ccc(F)cc4)c(-c4ccncc4)n3n2)CCN1` [Nr. 1], the EC50 was determined as 0.04 µM in the assay with DUX4 [1] (15 h, Table 3, 15 h treatment protocol, primary FSHD cells, read-out: EC50 for DUX4 repression); 0.04 µM in the assay on DUX4 [1] (setting [5]); 0.04 µM with DUX4 [1] (setting [6]). Also, the IC50 at CK1α (Table 3, read-out: CK1 a IC50) came to 0.0295 µM; on CK1α (Table 4, read-out: CK1 a IC50) it was 0.0295 µM; at CK1α (Table 6, read-out: IC50 CK1α) it was 0.029 µM; on CK1ε (Table 3, read-out: CK1 e IC50), 0.0124 µM; at CK1ε (Table 4, read-out: CK1 e IC50) it was 0.0124 µM; on CK1δ (Table 3, read-out: CK1 d IC50) it was 0.0185 µM. Further, the IC50 on CK1δ (Table 4, read-out: CK1 d IC50) amounted to 0.0185 µM; on CK1δ (Table 6, read-out: IC50 CK1δ), 0.018 µM; on p38α (Table 3, read-out: p38a IC50) it was 0.0132 µM; on p38α (Table 4, read-out: p38a IC50), 0.0132 µM.
For the molecule `CC(C)(C)Cn1c(N)nc2ccc(-c3[nH]c(C(C)(C)C)nc3-c3ccc(F)cc3)nc21` [LY2228820, reference compound], the IC50 at CK1α (setting [3]) was over 10 µM; at CK1δ (Table 7, p38 compounds, read-out: IC50 CK1d), 2.78 µM; on p38α (setting [4]), 0.014 µM. The “effect on fusion index / myotube fusion” value in the assay on primary FSHD cells is listed as “inhibited the fusion index”.
On to `Cc1ccc(C(=O)NC2CC2)cc1-n1ncc(C(=O)c2cccc(C#N)c2)c1N` [Acumapimod, reference compound], for which the IC50 at CK1α (setting [3]) is over 10 µM; on p38α (setting [4]), 0.022 µM. In addition, the “effect on fusion index / myotube fusion” value in the assay on primary FSHD cells is listed as “inhibited the fusion index”.
As to `Cn1cc(-c2ccnc3c2C(=O)OC3)c(-c2ccc(F)cc2)n1` [Nr. 4], the EC50 with DUX4 [1] (setting [5]) and in the assay with DUX4 [1] (setting [6]) was 4.8 µM in each case. Besides, the “myotube formation in the presence of increasing concentrations of losmapimod” value in the assay with primary FSHD cells is recorded as “myotube formation is still intact”. Moreover, the IC50 on CK1ε (Table 6, read-out: IC50 CK1ε) was 0.052 µM; on CK1δ (Table 6, read-out: IC50 CK1δ), 0.033 µM.
Regarding `COc1cc(OC)c(C=C2C(O)=Nc3ccccc32)c(OC)c1` [IC261], the “pancreatic tumor cell growth” value in the assay on pancreatic tumor cell was “reduces pancreatic tumor cell growth”.
`CN1Cc2nccc(-c3cn(C)nc3-c3ccc(F)cc3)c2C1=O` [Nr. 5]: the EC50 with DUX4 [1] (15 h, read-out: DUX4 EC50) was 1.89 µM; in the assay with DUX4 [1] (15 h, read-out: EC50 for DUX4 repression) it was 1.9 to 3.1 µM; in the assay on DUX4 [1] (72 h, read-out: DUX4 EC50), 6.7 µM. The “myotube formation in the presence of increasing concentrations of losmapimod” value in the assay on primary FSHD cells was “myotube formation is still intact”.
Turning to `Fc1ccc(-c2nc3ccc(N4CCNCC4)nn3c2-c2ccncc2)cc1` [Nr. 8], the “effect on DUX4” value in the assay on DUX4 [1] (72 h treatment) is “near maximal DUX4 inhibition”. For the same molecule, the EC50 is 0.01 to 0.06 µM in the assay on DUX4 [1] (setting [5]) and 0.01 µM in the assay on DUX4 [1] (setting [6]). Also, the “myotube formation in the presence of increasing concentrations of losmapimod” value with primary FSHD cells was “myotube formation is still intact”. Moreover, the IC50 at CK1ε (Table 6, read-out: IC50 CK1ε) was found to be 0.009 µM; at CK1δ (Table 6, read-out: IC50 CK1δ), 0.016 µM; on p38α (Table 6, read-out: IC50 p38α), 0.015 µM.

(Values after US20220226340A1, “CASEIN KINASE 1 INHIBITORS FOR USE IN THE TREATMENT OF DISEASES RELATED TO DUX4 EXPRESSION SUCH AS MUSCULAR DYSTROPHY AND CANCER” (Facio Intellectual Property B.V., priority 2019, published 2022).)
